# Measurements reported in publication PMC8301776, “New Hybrid Compounds Combining Fragments of Usnic Acid and Monoterpenoids for Effective Tyrosyl-DNA Phosphodiesterase 1 Inhibition” (Biomolecules, 2021).
# “Also recorded” adds a separate entry of the source. Like-named read-outs stand apart in the source and are kept apart here.
# What was measured:
# [1] = tested on: HeLa cells; assay: Intrinsic cytotoxicity, EZ4U colorimetric test, HeLa; format: cell-based, human; conditions: Figure 6
# Description: (§1) Cytotoxicity of the compounds was examined against human cell lines HEK293A (human embryonic kidney)—WT and TDP1-deficient (Tdp1-/-), and HeLa (cervical cancer) using an EZ4U colorimetric tests (Biomedica, Vienna, Austria) or xCELLigence DP Real-Time Cell Analyzer (ACEA Biosciences, Santa Clara, CA, USA). Cell lines were obtained from the Russian Cell Culture Collection (RCCC) Institute of Cytology RAS (St. Petersburg, Russia). The cells were grown in DMEM/F12 medium (Thermo Fisher Scientific, Waltham, MA, USA), with 1× GlutaMAX (Thermo Fisher Scientific, Waltham, MA, USA), 50 IU/mL penicillin, and 50 μg/mL streptomycin (Thermo Fisher Scientific, Waltham, MA, USA), and in the presence of 10% fetal bovine serum (Biolot, Saint-Petersburg, Russia) in 5% CO2 atmosphere. Control cells were grown in the presence of 1% DMSO where indicated. After formation of a 30–50% monolayer, tested compounds were added to the medium, and the cell culture was monitored for 3 days. […] The measurements were carried out in three parallel experiments.
# (§2) The intrinsic cytotoxicity of the four lead compounds (11a–d) was examined using a colorimetric test (Figure 6).
# [2] = tested on: HEK293A cells; assay: Intrinsic cytotoxicity, EZ4U colorimetric test, HEK293A; format: cell-based, human; conditions: Figure 6
# Description: as §1, §2
# [3] = biological target: T1, TDP1 (Homo sapiens, UniProt Q9NUW8); assay: Real-time fluorescence detection of TDP1 activity (FAM/BHQ1 oligonucleotide biosensor); format: biochemical
# T1 construct: made in house; host or cells: E. coli
# T1 sequence (Q9NUW8 whole entry): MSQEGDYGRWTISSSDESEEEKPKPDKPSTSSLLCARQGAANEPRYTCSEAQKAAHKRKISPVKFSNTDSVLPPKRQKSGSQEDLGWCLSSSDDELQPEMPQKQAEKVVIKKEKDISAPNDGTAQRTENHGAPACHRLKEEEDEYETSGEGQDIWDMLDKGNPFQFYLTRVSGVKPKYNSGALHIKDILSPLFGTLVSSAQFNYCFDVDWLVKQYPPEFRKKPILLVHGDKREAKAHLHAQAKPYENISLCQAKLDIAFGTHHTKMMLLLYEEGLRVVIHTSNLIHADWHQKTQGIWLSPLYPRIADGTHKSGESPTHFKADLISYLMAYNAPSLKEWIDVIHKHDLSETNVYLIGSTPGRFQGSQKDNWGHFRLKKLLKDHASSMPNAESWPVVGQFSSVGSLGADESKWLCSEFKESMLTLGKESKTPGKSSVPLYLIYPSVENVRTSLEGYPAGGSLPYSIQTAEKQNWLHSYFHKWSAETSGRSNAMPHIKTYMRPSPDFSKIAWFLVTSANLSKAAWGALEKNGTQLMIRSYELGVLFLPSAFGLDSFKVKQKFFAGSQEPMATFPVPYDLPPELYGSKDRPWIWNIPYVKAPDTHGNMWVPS
# [4] = tested on: HEK293A TDP1-/- cells; assay: Topotecan cytotoxicity alone or in combination, colorimetric test, HEK293A TDP1-/- clones C6, G6, F7; format: cell-based, human; conditions: HEK293A Tdp1-/- cells; combination with Tpc
# Description: TDP1 knockout HEK293A clones were obtained in the same way as the previously described TDP1 knockout HEK293FT clones. Briefly, two 20-nt protospacer sequences flanking the first protein coding exon of human TDP1 gene were selected using https://www.benchling.com/ (accessed date 1 November 2020). Oligonucleotides were cloned in plasmid pSpCas9(BB)-2A-GFP (PX458). pSpCas9(BB)-2A-GFP (PX458) was a gift from Feng Zhang (Addgene plasmid # 48138; http://n2t.net/addgene:48138; RRID: Addgene_48138). HEK293A cells were transfected with plasmids pX458-TDP1-gRNA1 and pX458-TDP1-gRNA2 (0.25 µg of each) using Lipofectamine 3000 Reagent (Thermofisher Scientific, Waltham, MA, USA). Growth medium contained DMEM/F12 (Thermofisher Scientific, Waltham, MA, USA) 1:1, 10% FBS (Thermofisher Scientific, Waltham, MA, USA), 100 U/mL penicillin–streptomycin (Thermofisher Scientific, Waltham, MA, USA), and 1 × GlutaMAX (Thermofisher Scientific, Waltham, MA, USA). […] Single cell clones grew for two weeks, and genome DNA was analyzed on CRISPR/Cas9-mediated deletions in TDP1 gene by PCR amplification of target region with primers: TDP1-scF 5′-[…]-3′ and TDP1-scR 5′-[…]-3′. […]
# Cytotoxicity of the compounds was examined against human cell lines HEK293A (human embryonic kidney)—WT and TDP1-deficient (Tdp1-/-), and HeLa (cervical cancer) using an EZ4U colorimetric tests (Biomedica, Vienna, Austria) or xCELLigence DP Real-Time Cell Analyzer (ACEA Biosciences, Santa Clara, CA, USA). […] After formation of a 30–50% monolayer, tested compounds were added to the medium, and the cell culture was monitored for 3 days. […]
# In our previous work, the cytotoxic effect of Tpc and the TDP1 inhibitors, monoterpene 3-carene derivatives, was established; both were measured separately and jointly using a panel of HEK293FT TDP1 knockout isogenic clones. […] No cleavage activity was detected in the clones’ C6, G6, and F7 cell extracts in contrast to control WT and purified TDP1. […]
# [5] = tested on: HEK293A WT cells; assay: Topotecan cytotoxicity in combination with TDP1 inhibitors, colorimetric test, HEK293A WT; format: cell-based, human
# Description: as §1
# There was no difference between WT and the mutant cells.
# [6] = tested on: HeLa cells; assay: Topotecan cytotoxicity in combination with TDP1 inhibitors, colorimetric test, HeLa; format: cell-based, human
# Description: as §1
# The combination index (CI) values were determined for different concentrations of Tpc and the enamines 11a–d at 2 and 5 μM. […] The CI values were calculated with the CompuSyn version 1.0 software. The CI plot at different fraction-affected (Fa) was determined for Tpc (0.3, 0.5, 1, 2, and 4 μM) and the Tdp1 inhibitors (2 and 5 μM).
# [7] = tested on: HEK293A WT cells; assay: xCELLigence impedance-based real-time cell growth assay, alone or with Tpc; parameters: species or system human
# Description: as §1
# This stimulation was also confirmed for HEK293A WT cells using the xCELLigence DP Real-Time Cell Analyzer impedance-based assay (Figure 9). […] The stimulation effect depends on the concentration of compounds 11a and 11c (Figure 9B,C).
# (A). Cell growth of HEK293A cells in the control wells without compounds added (black), with 50 nM Tpc (red), 40 µM 11a (dark green), or 40 µ M 11c (violet). (B,C) Cell growth of HEK293A cells with 50 nM Tpc only (red) and in combination with 5 µM (green), 10 µM (dark blue), 20 µM (pink), or 40 µM (blue) 11a (B) or 11c (C).
# [8] = as repeated in Table S1, read-out: IC50
# [9] = as repeated in Table S2, read-out: IC50
# [10] = as repeated in Table S3, read-out: IC50
# [11] = real-time fluorescent test, 1.5 nM TDP1, 50 nM substrate, 26 °C, read-out: IC50, TDP1 activity
Compound,intrinsic cytotoxicity (in words) [1],intrinsic cytotoxicity (in words) [2],"IC50 [3, 8]","IC50 [3, 9]","IC50 [3, 10]","IC50 [3, 11]","effect on cell growth in combination with Tpc, compared to Tpc (in words) [4]","effect on Tpc cytotoxicity / cell growth, compared to Tpc (in words) [5]",effect on Tpc cytotoxicity (in words) [6],"effect on cell growth with Tpc, compared to Tpc ([7]; 50 nM Tpc + 5, 10, 20 or 40 µM compound)",toxicity of compound alone (in words) ([7]; 40 µM compound),"IC50, TDP1 activity ([3]; real-time fluorescent test, 1.5 nM TDP1, 50 nM substrate, 26 °C)"
"CC(=O)c1c(O)c(C)c(O)c2c1OC1=CC(=O)/C(=C(/C)NCC3=CC[C@H]4C[C@@H]3C4(C)C)C(=O)[C@@]12C [11d, (2R,4E)-10-Acetyl-4-[1-({[(1R,5S)-6,6-dimethylbicyclo[3.1.1]hept-2-en-2-yl]methyl}amino)ethylidene]-11,13-dihydroxy-2,12-dimethyl-8-oxatricyclo[7.4.0.0^2,7]trideca-1(13),6,9,11-tetraene-3,5-dione]",completely suppressed cell growth at 100 μM,completely suppressed cell growth at 100 μM,0.23 µM,–,–,–,–,–,–,–,–,–
"CC(=O)c1c(O)c(C)c(O)c2c1OC1=CC(=O)/C(=C(/C)NCCCC(=O)OCCC3=CC[C@H]4C[C@@H]3C4(C)C)C(=O)[C@@]12C [13c, 2-[(1R,5S)-6,6-Dimethylbicyclo[3.1.1]hept-2-en-2-yl]ethyl 4-({1-[(2R,4E)-10-acetyl-11,13-dihydroxy-2,12-dimethyl-3,5-dioxo-8-oxatricyclo[7.4.0.0^2,7]trideca-1(13),6,9,11-tetraen-4-ylidene]ethyl}amino)butanoate]",–,–,> 10 µM,> 10 µM,> 10 µM,> 10 µM,–,–,–,–,–,–
"CC(=O)c1c(O)c(C)c(O)c2c1OC1=CC(=O)/C(=C(/C)NCC[C@@H](C)CCC=C(C)C)C(=O)[C@@]12C [11a, (2R,4E)-10-Acetyl-4-(1-{[(3S)-3,7-dimethyloct-6-en-1-yl]amino}ethylidene)-11,13-dihydroxy-2,12-dimethyl-8-oxatricyclo[7.4.0.0^2,7]trideca-1(13),6,9,11-tetraene-3,5-dione]",non-cytotoxic,non-cytotoxic,0.4 µM,–,–,–,stimulation of cell growth,reduced it; also recorded: stimulation of cell growth; also recorded: stimulated cell growth,enhanced topotecan’s cytotoxicity; also recorded: synergistic effect; also recorded: enhanced Tpc cytotoxicity,stimulated cell growth,modestly toxic,–
"CC(=O)c1c(O)c(C)c(O)c2c1OC1=CC(=O)/C(=C(/C)NC/C=C(\C)CCC=C(C)C)C(=O)[C@@]12C [11b, (2R,4E)-10-Acetyl-4-(1-{[(2E)-3,7-dimethylocta-2,6-dien-1-yl]amino}ethylidene)-11,13-dihydroxy-2,12-dimethyl-8-oxatricyclo[7.4.0.0^2,7]trideca-1(13),6,9,11-tetraene-3,5-dione]",completely suppressed cell growth at 100 μM,completely suppressed cell growth at 100 μM,0.32 µM,–,–,–,–,–,–,–,–,–
"CC(=O)c1c(O)c(C)c(O)c2c1OC1=CC(=O)/C(=C(/C)NCCCC(=O)OCC[C@H](C)CCC=C(C)C)C(=O)[C@@]12C [13a, (3R)-3,7-Dimethyloct-6-en-1-yl 4-({1-[(2R,4E)-10-acetyl-11,13-dihydroxy-2,12-dimethyl-3,5-dioxo-8-oxatricyclo[7.4.0.0^2,7]trideca-1(13),6,9,11-tetraen-4-ylidene]ethyl}amino)butanoate]",–,–,> 10 µM,> 10 µM,> 10 µM,> 10 µM,–,–,–,–,–,–
"CC(=O)c1c(O)c(C)c(O)c2c1OC1=CC(=O)/C(=C(/C)NCCCC(=O)OCC3=CC[C@H]4C[C@@H]3C4(C)C)C(=O)[C@@]12C [13d, [(1R,5S)-6,6-Dimethylbicyclo[3.1.1]hept-2-en-2-yl]methyl 4-({1-[(2R,4E)-10-acetyl-11,13-dihydroxy-2,12-dimethyl-3,5-dioxo-8-oxatricyclo[7.4.0.0^2,7]trideca-1(13),6,9,11-tetraen-4-ylidene]ethyl}amino)butanoate]",–,–,> 10 µM,> 10 µM,> 10 µM,> 10 µM,–,–,–,–,–,–
"C=C(C)[C@@H]1CC=C(COC(=O)CCCN/C(C)=C2\C(=O)C=C3Oc4c(C(C)=O)c(O)c(C)c(O)c4[C@@]3(C)C2=O)CC1 [13e, [(4S)-4-(Prop-1-en-2-yl)cyclohex-1-en-1-yl]methyl 4-({1-[(2R,4E)-10-acetyl-11,13-dihydroxy-2,12-dimethyl-3,5-dioxo-8-oxatricyclo[7.4.0.0^2,7]trideca-1(13),6,9,11-tetraen-4-ylidene]ethyl}amino)butanoate]",–,–,> 10 µM,> 10 µM,> 10 µM,> 10 µM,–,–,–,–,–,–
"CC(=O)c1c(O)c(C)c(O)c2c1OC1=CC(=O)/C(=C(/C)NCCCC(=O)OC/C=C(\C)CCC=C(C)C)C(=O)[C@@]12C [13b, (2E)-3,7-Dimethylocta-2,6-dien-1-yl 4-({1-[(2R,4E)-10-acetyl-11,13-dihydroxy-2,12-dimethyl-3,5-dioxo-8-oxatricyclo[7.4.0.0^2,7]trideca-1(13),6,9,11-tetraen-4-ylidene]ethyl}amino)butanoate]",–,–,> 10 µM,> 10 µM,> 10 µM,> 10 µM,–,–,–,–,–,–
"C=C(C)[C@@H]1CC=C(CN/C(C)=C2\C(=O)C=C3Oc4c(C(C)=O)c(O)c(C)c(O)c4[C@@]3(C)C2=O)CC1 [11e, (2R,4E)-10-Acetyl-11,13-dihydroxy-2,12-dimethyl-4-[1-({[(4S)-4-(prop-1-en-2-yl)cyclohex-1-en-1-yl]methyl}amino)ethylidene]-8-oxatricyclo[7.4.0.0^2,7]trideca-1(13),6,9,11-tetraene-3,5-dione]",–,–,> 10 µM,> 10 µM,> 10 µM,> 10 µM,–,–,–,–,–,did not inhibit the enzyme
